Laboratory results published in the supplement of paper PMC10307832.

Columns and labels:
Test in all cases: relative viability (nuclei count vs DMSO), 5 days (fraction); higher = more cells survive
[1] = compound: CCN1CCN(c2ccc(Nc3cc(N(C)C(=O)Nc4c(Cl)c(OC)cc(OC)c4Cl)ncn3)cc2)CC1 [BGJ398] + N=C(N)NC(=N)NCCc1ccccc1 [Phenformin] (partner 250 µM)
Procedure, shortened: (§1)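 The day after seeding in 1536-well plates, lung cancer cell lines were treated by pin tool with a single drug, or with a fixed anchor-drug dose together with five library-drug doses (not always all listed) in √10 steps. After 5 days, a combined fix-and-stain solution (final 0.05% Triton X-100, 1% formaldehyde, 1 ug/ml Hoechst) was added. Nuclei counted on 4× images gave relative viability as treated counts over vehicle counts, reported as the median of duplicate plates.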

[2] = compound: CCN1CCN(c2ccc(Nc3cc(N(C)C(=O)Nc4c(Cl)c(OC)cc(OC)c4Cl)ncn3)cc2)CC1 [BGJ398] + Cc1cc(Nc2cc(N3CCN(C)CC3)nc(Sc3ccc(NC(=O)C4CC4)cc3)n2)n[nH]1 [Tozasertib] (partner 0.1 µM)
Procedure, shortened: as §1

[3] = compound: CCN1CCN(c2ccc(Nc3cc(N(C)C(=O)Nc4c(Cl)c(OC)cc(OC)c4Cl)ncn3)cc2)CC1 [BGJ398] + CC(=O)c1c(C)c2cnc(Nc3ccc(N4CCNCC4)cn3)nc2n(C2CCCC2)c1=O [Palbociclib] (partner 0.5 µM)
Procedure, shortened: as §1

[4] = compound: CCN1CCN(c2ccc(Nc3cc(N(C)C(=O)Nc4c(Cl)c(OC)cc(OC)c4Cl)ncn3)cc2)CC1 [BGJ398] + Cc1nc(NC(=O)N2CCC[C@H]2C(N)=O)sc1-c1ccnc(C(C)(C)C(F)(F)F)c1 [Alpelisib] (partner 2 µM)
Procedure, shortened: as §1

Row | Cell Line | relative viability ([1]; first compound 0.01 µM) | relative viability ([1]; first compound 0.03162 µM) | relative viability ([1]; first compound 0.1 µM) | relative viability ([1]; first compound 0.3162 µM) | relative viability ([1]; first compound 1 µM) | relative viability ([2]; first compound 0.01 µM) | relative viability ([2]; first compound 0.03162 µM) | relative viability ([2]; first compound 0.1 µM) | relative viability ([2]; first compound 0.3162 µM) | relative viability ([2]; first compound 1 µM) | relative viability ([3]; first compound 0.01 µM) | relative viability ([3]; first compound 0.03162 µM) | relative viability ([3]; first compound 0.1 µM) | relative viability ([3]; first compound 0.3162 µM) | relative viability ([3]; first compound 1 µM) | relative viability ([4]; first compound 0.01 µM) | relative viability ([4]; first compound 0.03162 µM) | relative viability ([4]; first compound 0.1 µM) | relative viability ([4]; first compound 0.3162 µM) | relative viability ([4]; first compound 1 µM)
1 | NCI-H1975 | 0.415 | 0.409 | 0.475 | 0.412 | 0.356 | 0.774 | 0.758 | 0.695 | 0.5 | 0.415 | 0.575 | 0.678 | 0.672 | 0.546 | 0.417 | 0.601 | 0.642 | 0.745 | 0.667 | 0.61
2 | NCI-H1993 | 0.554 | 0.485 | 0.479 | 0.523 | 0.575 | 0.526 | 0.546 | 0.651 | 0.581 | 0.616 | 0.674 | 0.639 | 0.655 | 0.692 | 0.724 | 0.689 | 0.623 | 0.642 | 0.746 | 0.7
3 | NCI-H2009 | 0.454 | 0.511 | 0.437 | 0.374 | 0.45 | 0.732 | 0.761 | 0.733 | 0.734 | 0.697 | 0.268 | 0.222 | 0.197 | 0.268 | 0.241 | 1.13 | 1.19 | 1.11 | 1.17 | 1.09
4 | NCI-H2023 | 0.409 | 0.483 | 0.434 | 0.398 | 0.371 | 0.309 | 0.345 | 0.301 | 0.232 | 0.255 | 0.341 | 0.493 | 0.285 | 0.456 | 0.404 | 0.576 | 0.644 | 0.534 | 0.586 | 0.579
5 | NCI-H2085 | 0.668 | 0.663 | 0.817 | 0.782 | 0.807 | 0.961 | 0.877 | 0.74 | 0.732 | 0.669 | 0.494 | 0.476 | 0.472 | 0.447 | 0.521 | 0.96 | 1.01 | 0.93 | 0.975 | 0.921
6 | NCI-H2087 | 0.44 | 0.438 | 0.507 | 0.386 | 0.494 | 0.219 | 0.255 | 0.24 | 0.26 | 0.277 | 0.266 | 0.224 | 0.204 | 0.282 | 0.184 | 0.99 | 1.17 | 1.05 | 1.19 | 1.18
7 | NCI-H2126 | 0.505 | 0.57 | 0.541 | 0.547 | 0.475 | 0.892 | 0.825 | 0.911 | 0.927 | 0.868 | 0.374 | 0.344 | 0.36 | 0.351 | 0.335 | 0.78 | 0.746 | 0.735 | 0.766 | 0.853
8 | NCI-H2170 | 0.374 | 0.428 | 0.448 | 0.393 | 0.341 | 0.804 | 0.714 | 0.687 | 0.694 | 0.78 | 0.426 | 0.389 | 0.416 | 0.427 | 0.39 | 0.815 | 0.756 | 0.938 | 0.734 | 0.853
9 | NCI-H2228 | 0.328 | 0.32 | 0.243 | 0.299 | 0.28 | 0.235 | 0.255 | 0.224 | 0.188 | 0.204 | 0.645 | 0.885 | 0.922 | 0.638 | 0.738 | 0.609 | 0.616 | 0.776 | 0.718 | 0.696
10 | NCI-H2347 | 0.292 | 0.602 | 0.507 | 0.434 | 0.496 | 0.698 | 0.575 | 0.515 | 0.621 | 0.567 | 0.427 | 0.467 | 0.477 | 0.47 | 0.422 | 1.01 | 1.04 | 1.01 | 1.13 | 1.08
11 | NCI-H2405 | 0.394 | 0.432 | 0.377 | 0.394 | 0.371 | 0.727 | 0.812 | 0.712 | 0.727 | 0.712 | 0.523 | 0.586 | 0.52 | 0.553 | 0.547 | 0.723 | 0.932 | 0.831 | 0.79 | 0.875
12 | NCI-H3122 | 0.353 | 0.387 | 0.373 | 0.339 | 0.347 | 0.383 | 0.403 | 0.377 | 0.407 | 0.379 | 0.174 | 0.166 | 0.175 | 0.176 | 0.227 | 0.835 | 0.844 | 0.763 | 0.717 | 0.832
13 | PC-3 [JPC-3] | 0.468 | – | 0.445 | 0.418 | 0.46 | 0.958 | – | 0.867 | 0.829 | 0.842 | 0.591 | – | 0.522 | – | 0.569 | 1.05 | – | 1.04 | 0.948 | 0.973
14 | PC-14 | 0.586 | – | 0.642 | – | 0.369 | 0.575 | – | 0.666 | – | 0.621 | 0.505 | 0.524 | 0.664 | – | 0.513 | 0.824 | 0.845 | 0.98 | 0.958 | 0.938
15 | RERF-LC-KJ | 0.449 | 0.422 | 0.416 | 0.432 | 0.493 | 0.455 | 0.558 | 0.479 | 0.441 | 0.533 | 1.13 | 0.781 | 1.17 | 1.11 | 1.23 | 0.922 | 0.85 | 0.816 | 0.833 | 0.79
16 | SK-LU-1 | 0.5 | 0.556 | 0.58 | 0.367 | 0.491 | 0.354 | 0.34 | 0.312 | 0.284 | 0.222 | 0.394 | 0.47 | 0.384 | 0.339 | 0.346 | 0.939 | 0.885 | 1.02 | 0.971 | 0.796
17 | SK-MES-1 | 0.584 | 0.691 | 0.677 | 0.589 | 0.593 | 0.87 | 0.892 | 0.829 | 0.785 | 0.857 | 0.324 | 0.328 | 0.303 | 0.331 | 0.308 | 0.826 | 1 | 0.815 | 0.866 | 0.57
18 | SW 1573 | 0.312 | 0.456 | 0.405 | 0.407 | 0.368 | 0.182 | 0.171 | 0.185 | 0.189 | 0.171 | 0.399 | 0.419 | 0.402 | 0.423 | 0.404 | 0.689 | 0.961 | 0.765 | 0.761 | 0.789
19 | UMC-11 | 0.325 | 0.344 | 0.391 | 0.341 | 0.341 | 0.2 | 0.202 | 0.207 | 0.206 | 0.235 | 0.327 | 0.276 | 0.36 | 0.374 | 0.351 | 0.999 | 0.88 | 1.06 | 0.983 | 0.907
